Assay results from patent US20200345725A1, “Methods and Compositions for Treating Cancer” (Omeros Corporation, priority 2019, published 2020).

Tests used:
Type in all cases: cell-based
purified human T cells = assay: Suppression of cytokine production from purified human T cells by PS liposomes and NECA (MesoScale Discovery); settings: purified human CD3+ T cells, 24 hours, PS liposomes 1 μM, NECA
Protocol: Purified human T cells (untouched total T cells, Astarte Biologies, Inc., CD3+ T cells in FIGS. 72A and 72B and CD8+ T cells in FIG. 72C) were stimulated in quadruplicate at 100,000 cells per well in 96-well flat bottom plates and X-vivo 15 media with the following reagents:
ImmunoCult™ Human CD3/CD28 T Cell Activator (StemCell) (1:50 dilution)
PS liposomes (1 μM) or media control
Adenosine receptor agonist (NECA, 0.1 μM or 0.05 μM) or media control
A combination of both reagents.
After 24 hours of culture (44 hours for the results shown in FIG. 72C), culture media was analyzed for cytokines (MesoScale Discovery).

A2bR = molecular target: T1, A2bR (Homo sapiens, UniProt P29275); assay: Cre-luciferase reporter assay, HEK293 cells transfected with A2bR; settings: overnight incubation; read-out: A2B (IC50 nM)
T1 construct: host or cells: HEK293
T1 sequence (P29275 1-332): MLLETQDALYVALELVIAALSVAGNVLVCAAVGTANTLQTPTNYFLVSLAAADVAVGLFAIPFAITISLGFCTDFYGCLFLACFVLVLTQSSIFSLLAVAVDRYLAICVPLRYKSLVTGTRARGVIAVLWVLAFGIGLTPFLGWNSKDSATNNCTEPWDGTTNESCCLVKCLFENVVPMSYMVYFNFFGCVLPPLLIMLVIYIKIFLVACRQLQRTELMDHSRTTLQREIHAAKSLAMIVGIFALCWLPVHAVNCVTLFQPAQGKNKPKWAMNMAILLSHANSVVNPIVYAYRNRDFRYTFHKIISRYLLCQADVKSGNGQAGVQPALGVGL

GPR174 [1] = molecular target: T2, GPR174 (Homo sapiens, UniProt Q9BXC1); assay: GPR174 signaling assays with adenosine receptor inhibitors (data not shown); design: host or cells: HEK293 or CHO cell lines (ATCC)
Source text: It should be noted that the A2aR inhibitors tested belong to four distinct chemical classes and that none of them affects GPR174 signaling when tested in signaling assays (data not shown).
Target sequence in this assay (Q9BXC1 whole entry, species assumed): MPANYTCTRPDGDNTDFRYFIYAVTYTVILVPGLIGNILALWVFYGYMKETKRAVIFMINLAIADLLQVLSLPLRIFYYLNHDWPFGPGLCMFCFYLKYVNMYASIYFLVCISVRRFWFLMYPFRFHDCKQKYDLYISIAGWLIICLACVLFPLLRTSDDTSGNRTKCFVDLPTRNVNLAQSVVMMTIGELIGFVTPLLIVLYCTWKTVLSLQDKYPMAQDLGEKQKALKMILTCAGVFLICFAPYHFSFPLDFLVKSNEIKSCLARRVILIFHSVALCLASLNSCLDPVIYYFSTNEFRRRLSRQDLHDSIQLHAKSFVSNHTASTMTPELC

GPR174 [2] = molecular target: T2, GPR174; assay: Cellular redistribution assay (CRA) for GPR174
Source text: One method for identifying compounds capable of modulating a receptor is using a cellular redistribution assay (“CRA”). Exemplary CRA methods are found in U.S. Pat. No. 7,309,576 issued to O'Dowd et al. and in O'Dowd et al., J. Biomol. Screen. 12:175-85,2007. […] Incorporation of the NLS alters the cellular localization of the GPCR, such that the majority of the NLS-modified receptor is present in the cell interior. An NLS-modified GPCR, when interacting with a functionally active compound, is mostly localized on the cell surface. Thus, it becomes possible to identify receptor modulators without knowledge of the endogenous ligand or a surrogate ligand.
The inventors have identified a number of compounds that inhibit GPR174 using a CRA assay similar to that described in U.S. Pat. No. 7,309,576 and in O'Dowd et al., J. Biomol. Screen. 12:175-85, 2007. These compounds are described in detail below.
(§1) The inventors used a CRA similar to that described in U.S. Pat. No. 7,309,576 and O'Dowd et al., J. Biomol. Screen. 12:175-85, 2007 to identify compounds that are capable of interacting with GPR174 using a library of approximately 370,000 chemical entities. Briefly described, the CRA assay described in U.S. Pat. No. 7,309,576 involves artificially inserting a NLS into the dopamine D1 receptor (DRD1), which allows the receptor to traffic from the cell membrane to the cell interior, and that the binding of antagonists to the receptor retained the receptor at the cell surface, while removal of the ligand allowed the receptor to continue to internalize from the cell surface. Both antagonists and agonists that selectively bound the receptor retained the receptor on the plasma membrane. GPR174 constructs were generated for use in a CRA-based compound screening assay. From this screen, the inventors initially identified compounds of formula I-VI, as described herein and included in Table 1.
Target sequence in this assay (Q9BXC1 1-292 limits assumed): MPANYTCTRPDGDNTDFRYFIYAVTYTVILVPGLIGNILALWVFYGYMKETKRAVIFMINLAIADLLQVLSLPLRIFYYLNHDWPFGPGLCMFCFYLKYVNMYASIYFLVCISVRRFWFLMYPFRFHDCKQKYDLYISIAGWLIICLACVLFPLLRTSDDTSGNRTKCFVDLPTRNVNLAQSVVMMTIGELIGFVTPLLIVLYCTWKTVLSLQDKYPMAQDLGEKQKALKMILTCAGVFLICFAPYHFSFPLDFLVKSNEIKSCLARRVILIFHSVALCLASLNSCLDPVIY

CHRM1 = assay: CRA against CHRM1
Source text: as §1
The inventors also sought to validate that the compounds identified using the CRA are modulatory compounds. To this end, the above-described CRA was used to screen a library for compounds that interact with three control non-orphan receptors, and the results of this screen were compared to the results of screening the same library for compound that were identified using a Fluorometric Imaging Plate Reader (FLIPR) assay, a conventional technique commonly used to identify compounds interacting with non-orphan GPCRs signaling through Ca^++. Three non-orphan GPCRs—Muscarinic acetylcholine receptor M1 (CHRM1), Adrenergic receptor alpha 1a (ADRA1a), and Neuropeptide S receptor (NPSR)—were screened against a 10,000-compound GPCR-focused library. Thirty interacting compound “hits” were identified using the CRA, and eighty-one hits were identified using the FLIPR for the CHRM1 receptor; 9 CRA hits and 29 FLIPR hits for the NPS receptor were identified; and 110 CRA hits and 110 FLIPR hits for ADRA1a.
In addition, the CRA can also provide the relative potencies of compounds against the target receptor.

ADBR2 [3] = molecular target: T3, ADBR2 (Homo sapiens, UniProt P07550); assay: CRE-Luc reporter assay with control receptor ADBR2
T3 construct: host or cells: HEK293 or CHO cell lines (ATCC)
Protocol: The DNA/lipofectamine 2000 mix (3000 μL) was incubated at room temperature for 30 minutes and then added into a 10 cm culture dish (Corning, NY) containing 70-90% confluent cultured cells, (HEK293 or CHO cell lines (ATCC, VA)), in 15 mL of media. […] The cells were further incubated at 37° C. for various times. The media were removed and the cells lysed.
Compounds were tested in the reporter system with increasing concentrations of GPR174-interacting compounds.
The DNA/lipofectamine 2000 mix (3000 μL) was incubated at room temperature for 30 minutes and then added into a 10 cm culture dish (Corning, NY) containing 70-90% confluent cultured cells, typically HEK293 or CHO cell lines (ATCC, VA), in 15 mL of media. […] Media (26 mL) were added to the detached cells and 120 μL of transfected cells were transferred to each well on a 96-well plate. Increasing concentration of each compound in DMSO (1.2 μl) was added to the cells after plating into the 96-well plate. The cells were further incubated at 37° C. for various times. The media were removed, and the cells lysed.
ADBR2 is a GPCR, like GPR174, that activates the Gs signaling pathway.

ADBR2 [4] = molecular target: T3, ADBR2; assay: GloSensor cAMP assay with ADBR2
GPR174 [5] = molecular target: T2, GPR174; assay: CRE-Luc reporter Gs signaling assay with GPR174; design: host or cells: HEK293 or CHO cell lines (ATCC); settings: for Human GPR174 CRE Activity: nature of the compound (IA, antagonist, NM): pCRE-Luc reporter
Target sequence in this assay (Q9BXC1 whole entry): as the sequence (Q9BXC1 whole entry, species assumed) above

GPR174 [6] = molecular target: T2, GPR174; assay: GloSensor cAMP assay with GPR174, with or without agonist LysoPS; design: host or cells: HEK293 or CHO cell lines (ATCC)
Protocol: In order to confirm that GPR174 interacting compound 4 is an antagonist of GPR174-mediated Gs signaling, a GloSensor assay was carried out with increasing concentrations of compound 4 in the presence or absence of a fixed concentration (1 μM) of the GPR174 agonist LysoPS as follows.
The DNA/lipofectamine 2000 mix (3000 μL) was incubated at room temperature for 30 minutes and then added into a 10 cm culture dish (Corning, NY) containing 70-90% confluent cultured cells, typically HEK293 or CHO cell lines (ATCC, VA), in 15 mL of media. […] Media (26 mL) was added to the detached cells and 100 μL of transfected cells were transferred to each well on a 96-well plate. The cells were further incubated at 37° C. overnight. The following day, the media were removed and 100 μl of equilibration media (Promega) was added to each well to the manufacturer's directions. The cells were then incubated at room temperature for 2 hours and the cell plates were pre-read with a SpectraMax L (Molecular Devices, CA). After the pre-read, increasing concentrations of each compound in DMSO (1.0 μl) was added to the cells. The cell plates containing the compound were read immediately after the compound was added and at various times up to 30 minutes after the addition of the compound with a SpectraMax L (Molecular Devices, CA). Data were analyzed with either Excel (Microsoft, WA) or Prism 4.03 (GraphPad, CA).
Target sequence in this assay (Q9BXC1 whole entry, species assumed): as above

wild-type GPR174 = molecular target: T4, wild-type GPR174 (Homo sapiens, UniProt Q9BXC1); assay: GloSensor Gs signaling by phospholipids, HEK293 cells expressing wild-type GPR174; settings: 10 nM to 10,000 nM
T4 construct: expressed in transfected cells; host or cells: HEK293
T4 sequence (Q9BXC1 whole entry): as the sequence (Q9BXC1 whole entry, species assumed) above
Protocol: (§2) Unilamellar liposomes of phosphatidylserine (PS) and other phospholipids were prepared by hydration in PBS and extrusion at 50-54° C. through a 0.1 micron filter using a mini-extruder (Avanti). Lysophosphatidylserine (Lyso-PS) is soluble.
(§3) HEK293 cells were grown in 6-well plates and transfected using Lipofectamine 2000 (Thermo Fisher Scientific) with 300 ng/well of cAMP biosensor expressing plasmid pGlo22F (Promega) and 2 ng of a plasmid expressing wild-type GPR174 or 2 ng of a plasmid expressing a GPR174 mutant with lowered basal activity, referred to as “GPR174-v38.”
5-6 hours after transfection, the cells were trypsinized and plated at a density of 5000 cells/well into 96-well plates and incubated overnight. The next day, the culture medium was replaced with 100 μL/well of serum free medium X-vivo15 (Lonza) with 2% GloSensor Assay reagent (Promega). The plates were incubated for 1 hour at room temperature and measured in a luminometer to obtain the pre-compound values. […] The plates were measured in a luminometer to obtain the post-compound addition measurement. The ratio of post-compound addition to pre-compound addition measurements (i.e., the extent of Glosensor signal induction by an agonist) was determined. […]

GPR174-v38 = GPR174-v38 (Homo sapiens, UniProt Q9BXC1); assay: GloSensor Gs signaling by phospholipids, HEK293 cells expressing mutant GPR174-v38; settings: 10 nM to 10,000 nM
Protocol: as §2, §3
5-6 hours after transfection, the cells were trypsinized and plated at a density of 5000 cells/well into 96-well plates and incubated overnight. The next day, the culture medium was replaced with 100 μL/well of serum free medium X-vivo15 (Lonza) with 2% GloSensor Assay reagent (Promega). The plates were incubated for 1 hour at room temperature and measured in a luminometer to obtain the pre-compound values. […] The plates were measured in a luminometer to obtain the post-compound addition measurement. The ratio of post-compound addition to pre-compound addition measurements (i.e., the extent of Glosensor signal induction by an agonist) was determined.

CCNC(=O)[C@H]1O[C@@H](n2cnc3c(N)ncnc32)[C@H](O)[C@@H]1O [NECA]
IL-2 FC vs Media (purified human T cells; FIG. 72A): 0.42 fold change
IFN-γ FC vs Media (purified human T cells; FIG. 72B): 0.31 fold change

Nc1nc(-n2cccn2)nc(-n2cccn2)c1Br [PBF-509]
IC50 (A2bR): 680 nM

CCCn1c(=O)c2[nH]c(-c3ccc(OCC(=O)Nc4ccc(C#N)cc4)cc3)nc2n(CCC)c1=O [MRS-1754]
effect on GPR174 signaling (GPR174 [1]): did not affect GPR174 signaling

CCCC(=O)c1ccc(N2CCN(S(=O)(=O)c3ccc(C)cc3)CC2)c(F)c1 [compound 4]
dose-response curve against GPR174 in the CRA (FIG. 5A) (GPR174 [2]): show a dose-response curve
activity against CHRM1 in the CRA (FIG. 5B) (CHRM1): do not show any activity
Gs pathway in the presence of ADBR2 (CRE-Luc reporter) (ADBR2 [3]): did not modulate
Gs signaling in the presence of ADBR (GloSensor, FIG. 21B) (ADBR2 [4]): neither compound 4 nor LysoPS modulate Gs signaling
Gs pathway in the presence of GPR174 (CRE-Luc reporter) (GPR174 [5]; increasing concentrations of compound): did not modulate
Human GPR174 CRE Activity: nature of the compound (IA, antagonist, NM) (GPR174 [5]): GPR174 antagonist
Human GPR174 CRE Activity: nature of the compound (IA, antagonist, NM) (GPR174 [5]; listed as Compound 4): GPR174 antagonist
competition with the GPR174 agonist LysoPS (GloSensor, FIG. 21A) (GPR174 [6]; LysoPS fixed at 1 μM): does compete
Gs pathway in the presence of GPR174 (GloSensor, FIG. 21A) (GPR174 [6]; compound alone): does not modulate

lysophosphatidylserine [LysoPS]
Gs signaling in the presence of ADBR (GloSensor, FIG. 21B) (ADBR2 [4]): neither compound 4 nor LysoPS modulate Gs signaling
GPR174 Gs signaling, wild-type GPR174 (FIG. 45A) (wild-type GPR174): stimulate GPR174 Gs signaling in a concentration-dependent manner
GPR174 Gs signaling, mutant GPR174-v38 (FIG. 45B) (GPR174-v38): stimulate GPR174 Gs signaling in a concentration-dependent manner
